Source: article PMC2978906 (Cancer prevention research (Philadelphia, Pa.), 2010)

Molecular target: T1, estrogen receptor α (ER-α) (Homo sapiens, UniProt P03372)
T1 sequence (P03372 311-547 limits assumed): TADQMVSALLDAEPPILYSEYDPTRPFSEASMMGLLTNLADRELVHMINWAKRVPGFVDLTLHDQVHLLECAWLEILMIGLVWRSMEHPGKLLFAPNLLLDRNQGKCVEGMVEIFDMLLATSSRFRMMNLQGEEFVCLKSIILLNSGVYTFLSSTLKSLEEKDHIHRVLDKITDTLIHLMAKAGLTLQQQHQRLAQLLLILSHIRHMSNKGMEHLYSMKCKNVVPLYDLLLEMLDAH
Assay: LanthaScreen TR-FRET competitive binding assay

CC(C)c1cc2c(c(O)c1O)[C@@]13CCCC(C)(C)[C@@H]1C[C@@H]2OC3=O [carnosol]
IC50: 51 µM
